Tests used:
[1] = solubility observed during assay preparation; type: physicochemical; conditions: for solubility in buffer with 5% DMSO: after being dissolved in DMSO initially
[2] = target: rhodopsin in urea-washed rod outer-segment membranes (MII state, R*) (Bos taurus, UniProt P02699); experiment: extra MII stabilization assay; type: biochemical, bovine
[3] = target: R*-Gt interaction (photoactivated rhodopsin / transducin) (Bos taurus, UniProt P02699); experiment: R*-Gt binding and release assay; design: species or system bovine
Sequence of R*-Gt interaction (photoactivated rhodopsin / transducin) (P02699 whole entry): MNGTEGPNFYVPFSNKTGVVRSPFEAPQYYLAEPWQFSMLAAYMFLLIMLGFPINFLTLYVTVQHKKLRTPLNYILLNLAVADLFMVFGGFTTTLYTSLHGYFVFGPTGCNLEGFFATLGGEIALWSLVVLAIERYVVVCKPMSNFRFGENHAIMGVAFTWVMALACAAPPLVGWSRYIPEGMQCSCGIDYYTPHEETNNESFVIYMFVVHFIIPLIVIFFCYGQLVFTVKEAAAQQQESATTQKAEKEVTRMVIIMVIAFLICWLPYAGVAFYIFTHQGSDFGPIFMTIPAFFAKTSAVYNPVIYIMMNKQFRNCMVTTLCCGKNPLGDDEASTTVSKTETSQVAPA

Sequence of rhodopsin in urea-washed rod outer-segment membranes (MII state, R*) (P02699 whole entry): as above

C[C@H]1[C@H](C)CC[C@]2(C(=O)O)CC[C@]3(C)C(=CC[C@@H]4[C@@]5(C)C[C@@H](O)[C@H](O)[C@@](C)(CO)[C@@H]5[C@H](O)C[C@]43C)[C@H]12 [Compound 2, madecassic acid]
solubility in buffer with 5% DMSO [1]: soluble

C[C@]12CC[C@H]3[C@@H](CCC4=CC(=O)CC[C@@]43C)[C@@H]1CC[C@@H]2C(=O)COS(=O)(=O)c1ccc(Br)cc1 [Compound 3]
solubility in buffer with 3% DMSO/3% butanol ([1]; dissolved in DMSO/butanol solution, then buffer added): remained soluble

CC1(C)[C@@H](O)CC[C@]2(C)[C@H]3C(=O)C=C4[C@@H]5C[C@@](C)(C(=O)O)CC[C@]5(C)CC[C@@]4(C)[C@]3(C)CC[C@@H]12 [Compound 12]
activity in extra MII assay using pure compound ([2]; pure compound): neither showed significant activity

CC1(C)CC[C@]2(C(=O)O)CC[C@]3(C)C(=CC[C@@H]4[C@@]5(C)C[C@H](O)[C@H](O)[C@@](C)(C(=O)O)[C@@H]5CC[C@]43C)[C@@H]2C1 [Compound 16, medicagenic acid]
EC50 [2]: 350 µM
IC50 [3]: 2000 µM
solubility in buffer with 5% DMSO [1]: soluble
